Measurements from BigSolDB 2.1.

Structure (SMILES): CCCCCCC1(CCCCCC)c2cc(Br)ccc2-c2ccc(Br)cc21
- solubility (mole fraction) (in 1,4-dioxane, 293.15 K): 0.0466
- solubility (mole fraction) (in 1,4-dioxane, 303.15 K): 0.0801
- solubility (mole fraction) (in 1,4-dioxane, 313.15 K): 0.113
- solubility (mole fraction) (in 1,4-dioxane, 323.15 K): 0.17
- solubility (mole fraction) (in THF, 283.15 K): 0.0977
- solubility (mole fraction) (in THF, 293.15 K): 0.112
- solubility (mole fraction) (in THF, 303.15 K): 0.127
- solubility (mole fraction) (in THF, 313.15 K): 0.146
- solubility (mole fraction) (in THF, 323.15 K): 0.158
- solubility (mole fraction) (in acetonitrile, 283.15 K): 0.000305
- solubility (mole fraction) (in acetonitrile, 293.15 K): 0.000473
- solubility (mole fraction) (in acetonitrile, 303.15 K): 0.000684
- solubility (mole fraction) (in acetonitrile, 313.15 K): 0.000954
- solubility (mole fraction) (in acetonitrile, 323.15 K): 0.0012
- solubility (mole fraction) (in chloroform, 283.15 K): 0.0364
- solubility (mole fraction) (in chloroform, 293.15 K): 0.041
- solubility (mole fraction) (in chloroform, 303.15 K): 0.0483
- solubility (mole fraction) (in chloroform, 313.15 K): 0.0543
- solubility (mole fraction) (in chloroform, 323.15 K): 0.0613
- solubility (mole fraction) (in dichloromethane, 283.15 K): 0.0468
- solubility (mole fraction) (in dichloromethane, 293.15 K): 0.0633
- solubility (mole fraction) (in dichloromethane, 303.15 K): 0.0807
- solubility (mole fraction) (in dichloromethane, 313.15 K): 0.0987
- solubility (mole fraction) (in dichloromethane, 323.15 K): 0.118
- solubility (mole fraction) (in ethanol, 283.15 K): 0.00158
- solubility (mole fraction) (in ethanol, 293.15 K): 0.00182
- solubility (mole fraction) (in ethanol, 303.15 K): 0.00209
- solubility (mole fraction) (in ethanol, 313.15 K): 0.00233
- solubility (mole fraction) (in ethanol, 323.15 K): 0.00264
- solubility (mole fraction) (in ethyl acetate, 283.15 K): 0.0433
- solubility (mole fraction) (in ethyl acetate, 293.15 K): 0.0613
- solubility (mole fraction) (in ethyl acetate, 303.15 K): 0.0873
- solubility (mole fraction) (in ethyl acetate, 313.15 K): 0.114
- solubility (mole fraction) (in ethyl acetate, 323.15 K): 0.144
- solubility (mole fraction) (in isopropanol, 283.15 K): 0.000772
- solubility (mole fraction) (in isopropanol, 293.15 K): 0.00117
- solubility (mole fraction) (in isopropanol, 303.15 K): 0.00191
- solubility (mole fraction) (in isopropanol, 313.15 K): 0.00293
- solubility (mole fraction) (in isopropanol, 323.15 K): 0.00392
- solubility (mole fraction) (in methanol, 283.15 K): 0.000142
- solubility (mole fraction) (in methanol, 293.15 K): 0.000189
- solubility (mole fraction) (in methanol, 303.15 K): 0.000293
- solubility (mole fraction) (in methanol, 313.15 K): 0.000427
- solubility (mole fraction) (in methanol, 323.15 K): 0.000582
- solubility (mole fraction) (in n-butanol, 283.15 K): 0.00329
- solubility (mole fraction) (in n-butanol, 293.15 K): 0.00586
- solubility (mole fraction) (in n-butanol, 303.15 K): 0.00935
- solubility (mole fraction) (in n-butanol, 313.15 K): 0.0127
- solubility (mole fraction) (in n-butanol, 323.15 K): 0.0165
- solubility (mole fraction) (in n-hexane, 283.15 K): 0.0382
- solubility (mole fraction) (in n-hexane, 293.15 K): 0.0578
- solubility (mole fraction) (in n-hexane, 303.15 K): 0.0907
- solubility (mole fraction) (in n-hexane, 313.15 K): 0.123
- solubility (mole fraction) (in n-hexane, 323.15 K): 0.163
- solubility (mole fraction) (in toluene, 283.15 K): 0.0918
- solubility (mole fraction) (in toluene, 293.15 K): 0.121
- solubility (mole fraction) (in toluene, 303.15 K): 0.152
- solubility (mole fraction) (in toluene, 313.15 K): 0.188
- solubility (mole fraction) (in toluene, 323.15 K): 0.242
